Entries after “also recorded” stand apart in the source; their conditions may differ. A value given as a limit tells only on which side of the number the result lay.

For series [1], the system named is subjects with moderately to severely active ulcerative colitis. The series can be described thus: Example 20: Phase 3 maintenance study in ulcerative colitis (Study M14-234 Substudy 3), upadacitinib 15 mg or 30 mg QD vs placebo, 52 weeks. Conditions: for Corticosteroid-free remission, % of patients: patients in remission at completion of the 8-week induction studies; for Clinical remission (per Adapted Mayo Score) / Endoscopic improvement / Histologic-endoscopic mucosal improvement / Corticosteroid-free clinical remission: Week 52; for Corticosteroid-free clinical remission: among patients with clinical remission after 8 weeks of induction; for Clinical remission per Adapted Mayo Score at Week 52, % / Clinical remission at Week 52, Treatment Difference vs. PBO / Discontinued from Study Drug, Adverse events (primary reason), % / Discontinued from Study Drug, Lack of efficacy (primary reason), %: ITTA; for Clinical remission per Adapted Mayo Score at Week 52, % / Clinical remission at Week 52, Treatment Difference vs. PBO: NRI-C. It counts as in vivo, human.

Series [2] relates to subjects with moderately to severely active CD. The series can be described thus: Study M13-740: Phase 2 induction study, immediate-release upadacitinib vs placebo. Conditions: induction phase of Study M13-740, immediate-release formulation, doses of 6 mg BID and higher. The series is classed as in vivo, human.
A short description of series [3]: Pharmacokinetic exposure of once-daily formulation versus immediate-release formulation (AUC, Cmin, Cmax). The series is classed as in vivo, human. The note with it: 15 mg QD and 30 mg QD once-daily formulation versus 6 mg BID and 12 mg BID immediate-release formulation, respectively. The procedure:
This study evaluated two maintenance doses of upadacitinib at 15 mg and 30 mg QD. […] In addition, all the currently available PK, pharmacodynamic, safety, and efficacy data from upadacitinib studies were used to support the selection of these doses. […] Following induction with 45 mg QD, doses of 15 mg QD and 30 mg QD are expected to maintain clinical and endoscopic response while having better long-term safety profile compared to higher doses. Doses of 15 mg QD and 30 mg QD for up to 240 weeks were expected to be efficacious with an acceptable safety profile.

For series [4], the system named is subjects with moderately to severely active ulcerative colitis. The series can be described thus: Example 19: Phase 3 induction study in ulcerative colitis (Study M14-675), upadacitinib 45 mg QD vs placebo.
Procedure: The primary objective of this study is to evaluate the efficacy and safety of upadacitinib 45 mg once daily (QD) compared to placebo in inducing clinical remission (per Adapted Mayo score) in subjects with moderately to severely active ulcerative colitis (UC).
The secondary objectives of the study are to evaluate the efficacy of upadacitinib 45 mg QD comparing with placebo in ranked secondary endpoints of achieving endoscopic improvement, endoscopic remission, clinical response per Adapted Mayo Score, clinical response per Partial Adapted Mayo score, histologic-endoscopic mucosal improvement, no bowel urgency, no abdominal pain, histologic improvement, mucosal healing, and change in IBDQ total score and FACIT-F score.
Males and females between 18 and 75 years of age with a diagnosis of moderately to severely active UC. […] The study will consist of a mixed population: biologic-inadequate responders (bio-IR) and non-biologic-inadequate responders (non-bio-IR).
The randomization will be stratified by bio-IR status (bio-IR vs non-bio-IR), corticosteroid use (yes or no) and Adapted Mayo score (≤7 or >7) at Baseline. Within bio-IR, the randomization will be further stratified by number of prior biologic treatments (≤1 or >1). Within non-bio-IR, the randomization will be further stratified by previous biologic use (yes or no).
The blind from Part 1 will not be broken for the duration of the study as subjects will be assessed as clinical non-responders at the 8 Week Visit of Part 1 and will be moved to Part 2 for further treatment in the study without identifying their initial treatment assignment. All eligible subjects entering Part 2 will receive open-label treatment with upadacitinib 45 mg QD for 8 additional weeks (until Week 16). At Week 16, an endoscopy will be performed to evaluate the treatment effect. A flexible rectosigmoidoscopy is recommended. However, the use of flexible sigmoidoscopy or colonoscopy is at the investigators' discretion based on local practice.
For the assessment of the clinical endpoints, the stool frequency and the rectal bleeding subscore will be calculated as an average of the entries recorded into the subject's diary from the most recent consecutive 3-day period prior to each study visit. If diary entries from the 3 consecutive days prior to the visit are not available, the 3 most recent consecutive days in the last 10 days will be utilized. If data is not available for 3 consecutive days, the average of the entries from the most recent 3 non-consecutive days in the last 10 days will be utilized. Clinical endpoints of abdominal pain and bowel urgency from subject diaries will be measured at the same time period as the stool frequency and rectal bleeding subscores. Proportion of subjects who report no abdominal pain and proportion of subjects who report no bowel urgency in the 3 days will be estimated.
Subjects will undergo a full colonoscopy with biopsy for histologic assessment during Screening with local investigator assessment for Mayo endoscopic subscore for initial eligibility assessment, confirmed by a central reader prior to randomization. At end of treatment (Week 8 in Part 1) a full colonoscopy or flexible sigmoidoscopy, depending on the extent of disease at Screening, will be performed.
The endoscopic subscore result from the central reader during the screening period will be used to evaluate the eligibility of a subject to enroll in the study and for all efficacy assessments at Week 8 of Part 1.
Male or female between 16 and 75 years of age at Baseline.
The nature of series [5]: Solid state forms of upadacitinib: hygroscopicity. The series is classed as physicochemical.
Series [6] is described as follows: Solid state forms of upadacitinib: chemical and physical stability.
A short description of series [7]: Solid state forms of upadacitinib: solubility and bioavailability. It counts as physicochemical.

As for `CC[C@@H]1CN(C(=O)NCC(F)(F)F)C[C@@H]1c1cnc2cnc3[nH]ccc3n12` [upadacitinib, (3S,4R)-3-ethyl-4-(3H-imidazo[1,2-a]pyrrolo[2,3-e]pyrazin-8-yl)-N-(2,2,2-trifluoroethyl)pyrrolidine-1-carboxamide], the “Clinical remission per Adapted Mayo score at Week 52, proportion of subjects” value in series [1] (15 mg QD maintenance after 8 weeks 45 mg QD induction) is reported as 42.3%. Also, in series [1] (15 mg and 30 mg QD, 52 weeks), the Safety and tolerability result was “generally safe and well tolerated”. Moreover, the “Corticosteroid-free remission, % of patients” value in series [1] (15 mg cohort) is listed as 57%. In addition, in series [1] (15 mg once daily (n = 148)), the “Clinical remission (per Adapted Mayo Score)” value was found to be 42%, the Endoscopic improvement worked out at 49% and the Histologic-endoscopic mucosal improvement was 35%. For the same molecule, the Corticosteroid-free clinical remission in series [1] (15 mg once daily, N = 47) is listed as 57%. In addition, the “Clinical remission per Adapted Mayo score at Week 52, proportion of subjects” value in series [1] (30 mg QD maintenance after 8 weeks 45 mg QD induction) was 51.7%. Also, in series [1] (30 mg cohort), the “Corticosteroid-free remission, % of patients” value was determined as 68%. In series [1] (30 mg once daily (n = 154)), the “Clinical remission (per Adapted Mayo Score)” value was found to be 52%, the Endoscopic improvement came out at 62% and the Histologic-endoscopic mucosal improvement is on record as 49%. For the same molecule, the Corticosteroid-free clinical remission in series [1] (30 mg once daily, N = 58) worked out at 68%. Further, the “Clinical response per Partial Adapted Mayo Score and clinical remission rate per Partial Mayo Score over time” value in series [1] (both upadacitinib groups (15 mg, 30 mg)) was “maintained over time until Week 52”. For the same molecule, in series [1] (subjects with UC), the “Upadacitinib pharmacokinetics, induction vs maintenance periods” value was “consistent between the induction and maintenance periods”. Besides, in series [2], the “clinical and endoscopic efficacy compared to placebo” value is “demonstrated the clinical and endoscopic efficacy”. Also, in series [3], the “daily area under the concentration-time curve (AUC)” value is given as “equivalent”; the “minimum plasma concentration (Cmin) and maximum plasma concentration (Cmax)” value is listed as “comparable”. In addition, the “Rates of severe adverse events and AEs leading to study drug discontinuation compared to placebo” value in series [4] (45 mg) was “lower”. Also, in series [4] (45 mg QD), the “Onset of clinical response per Partial Adapted Mayo Score” value is “as early as Week 2”; the “Patients with clinical response at week 8” value was “approximately 75%”; the “Rates of neutropenia, lymphopenia, hepatic disorder, and CPK elevation compared to placebo” value is given as “higher”; the “Tolerability of eight-week induction treatment” value is “well tolerated”. Also, the “Week 8 non-responding patients with clinical response by 16 weeks” value in series [4] (45 mg QD, additional 8 weeks) was “approximately 50%”. For the same molecule, the Deaths entry in series [4] (45 mg QD, 8 weeks) is on record as “No deaths were reported”. Also, the “Primary and ranked secondary endpoints vs placebo” value in series [4] (45 mg QD, 8 weeks, all p<0.001) was “met primary and all ranked secondary endpoints”. Further, in series [4] (45 mg QD, SFS ≤1 and not greater than baseline, RBS 0, endoscopic subscore ≤1), the “Proportion of subjects achieving clinical remission per Adapted Mayo score at Week 8” value amounted to 33.5%.

In the case of `CC[C@@H]1CN(C(=O)NCC(F)(F)F)C[C@@H]1c1cnc2cnc3[nH]ccc3n12.CC[C@@H]1CN(C(=O)NCC(F)(F)F)C[C@@H]1c1cnc2cnc3[nH]ccc3n12.O` [Freebase Hydrate Form C], in series [5], the Hygroscopicity entry is recorded as “low hygroscopicity”. The Chemical stability result in series [6] is “good chemical stability”.

Turning to `CC[C@@H]1CN(C(=O)NCC(F)(F)F)C[C@@H]1c1cnc2cnc3[nH]ccc3n12` [Freebase Anhydrate Form D], the Hygroscopicity entry in series [5] is on record as “reversibly hygroscopic”. Also, in series [5] (90% RH at 25° C.), the “Water content (hygroscopicity)” value is listed as “up to 1.8%”. For the same molecule, in series [6], the Physical stability entry is reported as “metastable relative to Freebase Hydrate Form C”.

For the molecule `CC[C@@H]1CN(C(=O)NCC(F)(F)F)C[C@@H]1c1cnc2cnc3[nH]ccc3n12` [Freebase Hydrate Form B], the Physical stability result in series [6] is recorded as “not physically stable; also recorded: not stable after isolation at ambient conditions”.

As for `CC[C@@H]1CN(C(=O)NCC(F)(F)F)C[C@@H]1c1cnc2cnc3[nH]ccc3n12` [UPA, upadacitinib], the “Clinical remission per Adapted Mayo Score at Week 52, %” value stood at 40.5% in series [1] (Bio-IR, UPA 15 mg QD N = 71); 49.1% in series [1] (Bio-IR, UPA 30 mg QD N = 73); 43.9% in series [1] (Non-Bio-IR, UPA 15 mg QD N = 77); 54.0% in series [1] (Non-Bio-IR, UPA 30 mg QD N = 81). Also, the “Clinical remission at Week 52, Treatment Difference vs. PBO” value worked out at 33.0% in series [1] (Bio-IR, UPA 15 mg); 41.6% in series [1] (Bio-IR, UPA 30 mg); 26.3% in series [1] (Non-Bio-IR, UPA 15 mg); 36.3% in series [1] (Non-Bio-IR, UPA 30 mg). Besides, the “Discontinued from Study Drug, Adverse events (primary reason), %” value in series [1] (UPA 15 mg QD (N = 148)) was “(2.7) %”; in series [1] (UPA 30 mg QD (N = 154)), “(5.2) %”. Further, the “Discontinued from Study Drug, Lack of efficacy (primary reason), %” value was “(23.6) %” in series [1] (UPA 15 mg QD (N = 148)) and “(7.8) %” in series [1] (UPA 30 mg QD (N = 154)).

For the molecule `CC[C@@H]1CN(C(=O)NCC(F)(F)F)C[C@@H]1c1cnc2cnc3[nH]ccc3n12` [Amorphous Freebase], the Solubility result in series [7] is recorded as “greater solubility”. For the same molecule, in series [5], the Hygroscopicity entry is listed as “hygroscopic”. Moreover, the “Water content (hygroscopicity)” value in series [5] (25° C./90% relative humidity) is ≤ 12 % by weight. In series [6], the Chemical stability entry was “acceptable chemical stability”; the “Stability to light and peroxide” value was “acceptable stability to light and peroxide”.

For the origin of these results see patent US11564922B2, “Methods of treating crohn's disease and ulcerative colitis” (AbbVie Inc., priority 2017, dated 2023).
